In PubChem BioAssay (NCI):
Several values for one entry are separate records, joined by “and”; a condition that tells them apart may be missing. Equal entries are not always repeated.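 These data come from cells grown in 96-well plates and exposed to compound for 48 hours at five concentrations. The concentration for 50% growth inhibition is given as GI50. TGI denotes the concentration required for complete inhibition of growth.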

Columns and labels:
Assay in all cases: NCI tumour cell line growth inhibition, 48 h
KM20L2 colon = tested on: KM20L2 colon
HOP-18 NSCLC = tested on: HOP-18 NSCLC
M19-MEL melanoma = tested on: M19-MEL melanoma
DLD-1 colon = tested on: DLD-1 colon
RXF-631 renal = tested on: RXF-631 renal
MDA-MB-231 breast = tested on: MDA-MB-231 breast
BT-549 breast = tested on: BT-549 breast
MDA-N = tested on: MDA-N
HS 578T breast = tested on: HS 578T breast

Structure (SMILES) | TGI (KM20L2 colon) | TGI (HOP-18 NSCLC) | TGI (M19-MEL melanoma) | TGI (DLD-1 colon) | TGI (RXF-631 renal) | further results
CN1CCN(CCSC2Cc3cc(Cl)ccc3Sc3ccccc32)CC1 (stereo not given) | 4.08 µM | 22.6 µM | 4.16 µM | 10.4 µM |  | 
NC(N)=N/N=C(/c1nc2ccc([N+](=O)[O-])cc2[nH]c1=O)C(O)c1ccco1 (stereo not given) | > 100 µM | > 100 µM | > 100 µM | > 100 µM |  | 
Nc1ccc(C(=O)N/C(=C\C=C\c2ccco2)c2nc3[nH]c(=S)[nH]c(=O)c3[nH]2)cc1 | > 100 µM |  | > 100 µM | > 100 µM | > 100 µM | 
COc1cc(-c2cc(=O)c3cc4c(cc3[nH]2)OCO4)cc(OC)c1OC | > 100 µM | > 100 µM | > 100 µM | > 100 µM |  | GI50 (KM20L2 colon): > 100 µM
c1cnc2c(c1)-n1cccc1C1(CCSCC1)NN2 |  | > 100 µM | > 100 µM |  |  | 
Cc1cc2c(CC(=O)O)[nH]nc2c(C(=O)O)c1C | > 100 µM | > 100 µM | > 100 µM | > 100 µM | > 100 µM | 
Cc1cc2nc3c(=O)n(C)c(=O)nc-3n(-c3ccc(Cl)cc3)c2cc1C | 26.1 µM | 19.9 µM | 5.74 µM | 42.1 µM |  | 
CCN(CC)CCCCC1CCN(CC(=O)N2CC(C)C(=O)Nc3ccccc32)CC1 (stereo not given) | > 100 µM | > 100 µM | > 100 µM | > 100 µM |  | 
CC1=C2C(O)C(C(C)CO)C(O)CC2(C)C(O)CC1 (stereo not given) | > 100 µM |  | > 100 µM | > 100 µM | > 100 µM | 
Cc1nc2ccc(C(F)(F)F)cc2nc1Nc1ccc(Cl)c(Cl)c1 | 13.2 µM | 29.5 µM | 24.4 µM |  | 20.1 µM | 
O=C1C=C(c2c(O)ccc3ccccc23)c2ccccc2C1=O | 32.1 µM | 23.3 µM | 8.81 µM | 16.4 µM | 32.9 µM | TGI (MDA-MB-231 breast): 8.79 µM; TGI (BT-549 breast): 5.32 µM
CCN(CC)CCn1c2c3ccccc3ccc2c2oc(=O)c3ccccc3c21 | > 100 µM | > 100 µM | > 100 µM | > 100 µM | > 100 µM | 
O=[N+]([O-])c1c(/C=N/Nc2ccccc2)oc(-c2ccc3c(c2)OCO3)c1-c1ccc2c(c1)OCO2 | 37.5 µM |  | > 100 µM | > 100 µM | > 100 µM | 
CC1(C)C(=O)N(c2ccccc2)C(=O)N1c1nc2ccccc2[nH]1 | > 100 µM | > 100 µM | > 100 µM | > 100 µM | > 100 µM | 
CCCCC#COP(=O)(OCC)OCC | > 100 µM |  | > 100 µM | > 100 µM | > 100 µM | 
CCOc1ccccc1NC(=O)/C=C1\NC(=O)CS1 | > 100 µM | > 100 µM | > 100 µM | > 100 µM |  | 
N#CC(C#N)=C(N)/C(C#N)=C\c1ccnc2ccccc12 |  | > 100 µM | 40.8 µM | 27.5 µM |  | 

Structure (SMILES) | TGI (KM20L2 colon) | TGI (HOP-18 NSCLC) | TGI (M19-MEL melanoma) | TGI (DLD-1 colon) | TGI (RXF-631 renal) | further results
COP1(=O)CC2C(Cl)(Cl)C2(C)C1 (stereo not given) | > 100 µM | > 100 µM | > 100 µM | > 100 µM |  | 
C[CH2][Sn]1([CH2]C)[O]C(=O)[O][Sn]([CH2]C)([CH2]C)[O]1 | > 87.7 µM | 31.2 µM | 37.9 µM | > 57.8 µM |  | GI50 (KM20L2 colon): 31.6 µM; GI50 (HOP-18 NSCLC): 17.2 µM; GI50 (M19-MEL melanoma): 18.5 µM; GI50 (DLD-1 colon): 25.6 µM
CC1CC(c2ccccc2)=Nc2ccccc2S1(=O)=O (stereo not given) | 31.7 µM | 30 µM | 30.5 µM | 28.4 µM |  | 
NC(=O)c1c[se]c(C2OC(CO)C(O)C2O)n1 (stereo not given) |  | > 100 µM | > 100 µM | > 100 µM | > 100 µM | TGI (MDA-N): > 100 µM; TGI (MDA-MB-231 breast): > 100 µM; TGI (BT-549 breast): > 100 µM; TGI (HS 578T breast): > 100 µM
Cc1nc(N)sc1C(=O)/C=C/c1ccc(/C=C/C(=O)c2sc(NC(=O)CCCCCCCCC(=O)Nc3nc(C)c(C(=O)/C=C/c4ccc(/C=C/C(=O)c5sc(N)nc5C)cc4)s3)nc2C)cc1 | > 100 µM | > 100 µM | > 100 µM | > 100 µM | > 100 µM | 
CC(=O)OCC1OC(n2c(-c3ccccc3)cc(-c3ccco3)c(C#N)c2=O)C(OC(C)=O)C(OC(C)=O)C1OC(C)=O (stereo not given) | > 100 µM | 78.1 µM | > 100 µM | > 100 µM |  | GI50 (KM20L2 colon): 50.9 µM; GI50 (HOP-18 NSCLC): 28.2 µM; GI50 (DLD-1 colon): > 53.1 µM and 25.8 µM
COC(=O)c1c(-c2ccccc2)cc2c3cc(-c4ccccc4)c(C(=O)OC)n3c3ccccc3n12 | > 100 µM | > 100 µM | > 100 µM | > 100 µM | > 100 µM | 
CCOC(=O)CCC(=O)C1c2cccc(O)c2C(=O)c2c(O)cccc21 |  | 3.33 µM | 2.29 µM | 3.21 µM |  | 
O=C(C(O)c1cn(Cc2ccccc2)c2ccccc12)N1CCCCC1 (stereo not given) | > 100 µM | 90 µM | > 100 µM | > 100 µM |  | 
C=CCCCCCCCCCCCC1CCC(CC)N1 (stereo not given) | 15.8 µM | 25.2 µM | 16.2 µM | 15.5 µM | 23.5 µM | 
CCC(=O)c1cn(C)c(=O)c2ccccc12 | > 100 µM |  |  | > 100 µM | > 100 µM | 
N#CCCc1nc2ccc(Br)cc2c(=O)n1CCO |  |  | > 100 µM | > 100 µM | > 100 µM | 
COc1cc(C2c3cc4c(cc3[C@@H](Nc3ccc(C(=O)O)cc3)C3COC(=O)[C@H]23)OCO4)cc(OC)c1O (stereo not given in full) | > 100 µM | > 100 µM | 49.6 µM and > 17.5 µM | 54.9 µM and > 17.5 µM |  | GI50 (KM20L2 colon): 36.8 µM and > 17.5 µM; GI50 (HOP-18 NSCLC): 16.8 µM and 5.25 µM; GI50 (DLD-1 colon): 17.2 µM and 6.86 µM
COc1ccc(NC(=O)C2C(=O)N(c3ccc(OC)cc3)C(=O)/C2=N/O)cc1 (stereo not given) | > 100 µM | 44.4 µM | 61.1 µM | > 100 µM |  | 
CC(=O)N/C(=C\c1ccc(/C=C(\NC(C)=O)c2nc3ccc(Cl)cc3[nH]2)cc1)c1nc2ccccc2[nH]1 | > 100 µM |  | > 100 µM | > 100 µM | > 100 µM | 
COc1ccc(-c2c(C3=NCCN3)nnn2-c2ccccc2)cc1 | > 100 µM | > 100 µM | > 100 µM | > 100 µM |  | 
